Read-outs that look alike come from different tables or passages of the source.
How the values were obtained:
[1] = In vivo pharmacokinetic assay in rats
Procedure: (§1) In vivo pharmacokinetic assay in rats was performed, wherein the used rats were 6 male SD rats weighing 180-240 g and fasted overnight. […] Blood samples were centrifuged at 8000 rpm for 6 min at 4° C., and plasma was collected and stored at −20° C. The plasma at each time point was taken and added with 3-5 times of acetonitrile solution containing the internal standard for mixing, and the mixed solution was subjected to vortex mixing for 1 min, and centrifuging at 4° C. for 10 min at 13000 rpm. The supernatant was taken and added with 3 times of water for mixing. A proper amount of the mixed solution was taken for LC-MS/MS analysis. The major pharmacokinetic parameters were analyzed using WinNonlin 7.0 software and a non-compartmental model.

[2] = Thermodynamic solubility assay; type: physicochemical; conditions: thermodynamic from solid
Procedure: The compounds were weighed out accurately, added to the prepared phosphate buffered saline at pH 7.4, FeSSIF solution at pH 5.8 and FaSSGF solution at pH 1.6 to prepare a solution at a concentration of 4 mg/mL, and the prepared solution was shaken at 1000 rpm for 1 h, and then incubated overnight at room temperature. The incubated solution was centrifuged at 12000 rpm for 10 min to remove undissolved particles, and the supernatant was transferred to a new centrifuge tube. After the supernatant was diluted properly, the supernatant was added with an acetonitrile solution containing an internal standard, and quantified by adopting a standard curve prepared by the same matrix.

[3] = In vivo pharmacokinetic assay in mice; conditions: male, ICR, mouse, plasma
Procedure: as §1
In vivo pharmacokinetic assay in mice was performed, wherein the used mice were 18 male ICR mice weighing 20-25 g and fasted overnight. […] The rest of the procedure was performed in the same manner as in the pharmacokinetic assay in rats.

hERG channel [4] = target: T1, hERG channel (Homo sapiens (Human), UniProt Q12809); conditions: hERG IC50 in μM divided by ATX IC50 in nM as printed
Procedure: (§2) Inhibitory effect of the compound on hERG was detected using automated electrophysiological patch clamp QPatch. The cells used in this assay were CHO cell lines (supplied by Sophion Bioscience, Denmark) transfected with hERG cDNA and stably expressing hERG channel at cell passage number of P24. The cells were cultured in a medium containing the following components (all purchased from Invitrogen): ham's F12 medium, 10% (v/v) inactivated fetal bovine serum, 100 μg/mL hygromycin B and 100 μg/mL Geneticin. CHO hERG cells were grown in a culture dish containing the above culture solution and cultured in an incubator containing 5% CO2 at 37° C.
(§3) Extracellular buffer (2 mM CaCl2, 1 mM MgCl2, 4 mM KCl, 145 mM NaCl, 10 mM Glucose, 10 mM HEPES, pH: about 7.4, osmotic pressure: about 305 mOsm) and intracellular buffer (5.374 mM CaCl2, 1.75 mM MgCl2, 120 mM KCl, 10 mM HEPES, 5 mM EGTA, 4 mM Na-ATP, pH: about 7.25, osmotic pressure: about 295 mOsm) were prepared. […]
(§4) The assay data were analyzed by Qpatch analysis software supplied by Sophion, Excel, Graphpad Prism and the like.

[5] = Stability assay of human liver microsome; type: in vitro ADME; conditions: human liver microsomes
Procedure: The stability of human liver microsome was detected by in vitro co-incubation of compounds with human liver microsomes. Test compounds were first prepared as 10 mM stock solutions in DMSO solvent, followed by dilution of the compounds to 0.5 mM using acetonitrile. […] The deep-well plate was taken, […] was added to each well, then 15 μL of pre-warmed 6 mM NADPH solution was added to the plate to start the reaction, and the plate was incubated at 37° C. […] The supernatant was taken after centrifugation, and added with purified water at a ratio of 1:1 for LC-MS/MS detection to obtain the ratio of peak area of compound to peak area of internal standard at each time point. […] T1/2 was calculated using Excel.

hERG channel [6] = target: T1, hERG channel; assay: cell-based
Procedure: as §2, §3, §4

Autotaxin enzyme = Autotaxin enzyme (Homo sapiens (Human), UniProt Q13822); conditions: read-out: IC50 against ATX enzymatic activity; Autotaxin Inhibitor Screening Assay Kit, 37° C., 30 min, OD405
Procedure: The inhibitory activity of the compound against the Autotaxin enzyme was detected using the Autotaxin Inhibitor Screening Assay Kit (Cayman, 700580). The compound to be tested was first prepared into 10 mM stock solution in DMSO solvent, and then serially diluted into 8 concentrations of compound with DMSO. Subsequently, 8 concentrations of compound were diluted to 19× compound working solution (with DMSO content of 1.9%) with an Autotaxin Assay buffer (1×) provided in the kit. Autotaxin Assay Reagent (10×) was taken out and diluted 10-fold with Autotaxin Assay Buffer (1×). The Autotaxin Substrate was taken out, and added with 1.2 mL of Autotaxin Assay Buffer (1×) for dissolving. The mixture was mixed well and then let stand at room temperature. In a 96-well plate, 150 μL of Autotaxin Assay Buffer (1×), 10 μL of diluted 19× compound working solution, 10 μL of Autotaxin Assay Reagent (1×), 20 μL of dissolved Autotaxin Substrate were added into wells at each concentration, and then the mixture was mixed well, incubated at 37° C. on a constant-temperature shaking shaker, and incubated in the dark for 30 min.

[7] = tested on: Bleomycin-induced IPF model; assay: Bleomycin-induced IPF model in rats; type: in vivo; conditions: 30 mg/kg oral twice a day, 21 days
Procedure: The bleomycin-induced IPF model (idiopathic pulmonary fibrosis model) was performed at a dose of 5 U/kg using male BN rats weighing 180-240 g. […] The oral intragastric administration was performed twice a day on the second day after the modeling. The administration group was given a dose of 30 mg/kg at one time, and the vehicle control group was given blank vehicle for 21 consecutive days. During dosing, body weights were weighed every three days. On the 21st day of administration, bronchoalveolar lavage was performed 2 h after the first administration, the inflammatory cells in the lavage fluid were counted, and the relevant biomarkers in the lavage fluid supernatant were detected; after lavage, the left lung of the rat was harvested for fixation, and Masson's trichrome staining was used for pathological scoring of fibrosis and the remaining lung lobes were cryopreserved. The bronchoalveolar lavage fluid supernatant and freshly cryopreserved lung tissue of compound 3 group were taken, and the TGF-β1 protein content and total protein amount were detected by ELISA method, and the amount of TGF-β1 per mg of total protein was calculated.

[8] = target: ATX enzymatic activity in human plasma (Homo sapiens (Human), UniProt Q13822); assay: biochemical
Procedure: Whole blood from healthy volunteers was collected and anticoagulated with heparin. The blood collection tubes were centrifuged at 3000 rpm for 10 min, and plasma was taken and stored at −80° C. for later use.
The compounds were serially diluted with DMSO according to the standard concentration requirements, and then 3 μL of the compound was taken and added to a 96-well plate. 147 μL of PBS was added to each well containing 3 μL of the compound, and the mixed solution was mixed well, and then 50 μL of the mixed solution was taken out and added to a new 96-well plate. The human plasma was taken out of −80° C. refrigerator and thawed by rapid shaking in a 37° C. water bath, and 50 μL of human plasma was added to a 96-well plate containing 50 μL of diluted compounds (the final system was 1% DMSO). […]
After the incubation, the blank group was thawed on ice and transferred to the incubation plate. […] The peak areas of LPA18:2 and internal standard LPA17:0 were detected by LC-MSMS mass spectrometry.
The peak area ratio of LPA18:2 to internal standard LPA17:0 was calculated, and the generation inhibition rate of LPA18:2 was calculated according to the following formula: […]
According to the inhibition rate of different concentrations of the compound, the IC50 values of the compound were calculated for inhibition of ATX enzymatic activity in human plasma.

Solid stability, 1 week = type: physicochemical; conditions: for Purity (area %): HPLC; for Crystal form change: XRPD
Procedure: The crystal form A of hydrochloride, the crystal form A of fumarate, the crystal form A of benzenesulfonate and the free base crystal form A prepared repeatedly were placed at 25° C./60% RH and 40° C./75% RH for 1 week, and then the physical and chemical stability of the samples were tested by XRPD and HPLC. […] No significant purity decrease or crystal form transformation occurred in any of the other samples after being placed under 2 conditions for 1 week.

[9] = Solid stability evaluation at 60° C. for 24 h; type: physicochemical
Procedure: The crystal form A of benzenesulfonate of the compound of formula (I) was used as a starting sample, and 100 polymorph screening tests under different conditions were set. The screening method comprises the following steps: adding an anti-solvent, slowly volatilizing, slowly cooling, suspending and stirring (room temperature and 50° C.), circularly heating and cooling, gas-solid permeation, gas-liquid diffusion, inducing and grinding a high polymer. From the X-ray powder diffraction (XRPD) results of the isolated solid, only one polymorph of benzenesulfonate, i.e., the starting form A, was found. A partial evaluation was completed in the salt form screening stage, so only solid stability evaluation at 60° C. for 24 h was performed.

[10] = Stability of crystal form on storage for 6 months; type: physicochemical; conditions: 40° C./75% RH; 25° C./60% RH; 2° C. to 8° C.; polyethylene bag + aluminum foil bag
Description: (the aluminum foil bag is made of light-proof materials and can be protected from light; and the polyethylene bag and the aluminum foil bag are sealed when being packaged).

[11] = Hygroscopicity by dynamic vapor sorption (DVS); type: physicochemical
Procedure: Dynamic vapor sorption (DVS) curves are acquired on a DVS Intrinsic in SMS (Surface Measurement System). The relative humidity at 25° C. is corrected with the deliquescence points of LiCl, Mg(NO3)2 and KCl.
Hygroscopicity of the crystal form A of hydrochloride, the crystal form A of fumarate, the crystal form A of benzenesulfonate and the free base crystal form A prepared repeatedly was evaluated using a dynamic vapor sorption (DVS) instrument. Starting at 0% relative humidity (0% RH), the test acquired the percentage change of mass of the sample when humidity changed (0% RH to 95% RH to 0% RH) at a constant temperature of 25° C.

[12] = Dynamic solubility in water and three biological vehicles; type: physicochemical; conditions: for Crystal form change: XRPD of solid; for pH: filtrate
Procedure: The dynamic solubility of the crystal form A of hydrochloride, the crystal form A of fumarate, the crystal form A of benzenesulfonate and the free base crystal form A prepared repeatedly was evaluated in water and three biological vehicles. […] After centrifugation of the samples at each time point (0.45 μm PTFE filter head), the filtrate was determined for HPLC concentration and pH, and the centrifuged solid samples were tested for XRPD.

[13] = Pharmacokinetic assay (crystal form) in mice; type: in vivo; conditions: male, ICR, mouse, plasma, oral intragastric administration 10 mg/kg
Procedure: as §1, with “in mice” for “in rats”, “used mice” for “used rats”, “were 9” for “were 6”, “male ICR mice” for “male SD rats”, “weighing 20-25” for “weighing 180-240”, “overnight. 9 mice were taken and orally intragastrically administered with 10 mg/kg of the compound.” for “overnight.”

[14] = Polarizing microscope (PLM) image, particle size; type: physicochemical; conditions: room temperature
Description: The polarizing microscope data are acquired by an Axio Lab. A1 upright microscope at room temperature.

[15] = male, SD, rat, plasma, intravenous injection 1 mg/kg
[16] = male, SD, rat, plasma, oral intragastric administration 10 mg/kg
[17] = oral intragastric administration 10 mg/kg
[18] = SGF, 4 h, listed as Benzenesulfonate Crystal form
[19] = SGF, 24 h, listed as Benzenesulfonate Crystal form

T1 sequence (Q12809 whole entry): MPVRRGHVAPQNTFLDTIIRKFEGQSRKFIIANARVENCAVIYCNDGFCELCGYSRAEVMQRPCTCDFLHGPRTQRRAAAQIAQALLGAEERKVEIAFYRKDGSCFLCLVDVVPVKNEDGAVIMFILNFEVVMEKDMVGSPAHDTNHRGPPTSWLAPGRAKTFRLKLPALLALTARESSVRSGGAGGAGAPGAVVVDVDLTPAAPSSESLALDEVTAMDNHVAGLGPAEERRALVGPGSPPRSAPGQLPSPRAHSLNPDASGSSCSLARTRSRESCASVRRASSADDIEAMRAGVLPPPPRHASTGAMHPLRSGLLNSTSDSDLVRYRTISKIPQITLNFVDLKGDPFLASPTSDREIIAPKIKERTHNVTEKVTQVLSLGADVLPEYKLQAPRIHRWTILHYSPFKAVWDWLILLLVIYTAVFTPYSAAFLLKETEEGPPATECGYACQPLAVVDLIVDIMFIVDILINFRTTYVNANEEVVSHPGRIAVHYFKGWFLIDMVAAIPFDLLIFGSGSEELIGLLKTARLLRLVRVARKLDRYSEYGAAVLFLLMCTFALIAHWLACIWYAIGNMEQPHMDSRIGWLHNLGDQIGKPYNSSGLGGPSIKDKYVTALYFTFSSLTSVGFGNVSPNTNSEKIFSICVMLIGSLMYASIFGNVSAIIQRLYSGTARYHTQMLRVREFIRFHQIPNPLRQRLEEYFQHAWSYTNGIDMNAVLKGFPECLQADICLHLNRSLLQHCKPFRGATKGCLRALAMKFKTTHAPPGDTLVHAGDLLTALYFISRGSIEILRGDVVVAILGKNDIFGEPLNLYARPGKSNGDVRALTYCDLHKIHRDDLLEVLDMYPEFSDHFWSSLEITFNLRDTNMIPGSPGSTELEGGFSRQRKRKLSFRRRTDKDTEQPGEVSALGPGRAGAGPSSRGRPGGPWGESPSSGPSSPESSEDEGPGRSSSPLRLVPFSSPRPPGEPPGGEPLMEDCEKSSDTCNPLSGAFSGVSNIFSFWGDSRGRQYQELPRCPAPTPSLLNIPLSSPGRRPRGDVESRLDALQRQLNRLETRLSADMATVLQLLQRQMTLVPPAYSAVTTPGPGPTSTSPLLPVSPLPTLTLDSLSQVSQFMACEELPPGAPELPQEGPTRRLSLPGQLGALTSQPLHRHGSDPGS

C[C@H](Cc1cnn[nH]1)OCC(=O)N1Cc2cnc(NC3Cc4ccccc4C3)nc2C1 [Compound of formula (I), (R)-2-((1-(1H-1,2,3-triazol-5-yl)propan-2-yl)oxy)-1-(2-((2,3-dihydro-1H-inden-2-yl)amino)-5,7-dihydro-6H-pyrrolo[3,4-d]pyrimidin-6-yl)ethan-1-one]
clearance (CL) in rats relative to that of the control compound [1]: about ⅙ | AUC(0-t) [1, 15]: 3650 ng·h/mL | clearance [1, 15]: 4.67 mL/min/kg | half-life [1, 15]: 30 min | Vd ([1]; male, SD, rat, plasma, intravenous injection 1 mg/kg, read-out: Vz): 0.21 L/kg | AUC(0-t) [1, 16]: 20700 ng·h/mL | Cmax [1, 16]: 15800 ng/mL | Tmax [1, 16]: 19.8 min | half-life [1, 16]: 154 min | AUC0-t of oral administration relative to the control compound ([1]; oral): 4.2 times | Cmax of oral administration relative to the control compound ([1]; oral): 6.1 times | solubility ([2]; FaSSGF solution, fassgf or other biorelevant, heading: Solubility FaSSGF, FaSSGF, pH 1.6, room temperature overnight): 1.04 mg/mL | solubility ([2]; FeSSIF solution, FeSSIF, pH 5.8, room temperature overnight, read-out: Solubility FeSSIF (pH 5.8)): 260 mg/mL | solubility ([2]; phosphate buffered saline, aqueous buffer, PBS, pH 7.4, room temperature overnight, read-out: Solubility PBS (pH 7.4)): 107 mg/mL | AUC(0-t) ([3]; intravenous injection 1 mg/kg): 626 ng·h/mL | clearance ([3]; intravenous injection 1 mg/kg): 26.7 mL/min/kg | half-life ([3]; intravenous injection 1 mg/kg): 22.8 min | Vd ([3]; intravenous injection 1 mg/kg, read-out: Vz): 0.88 L/kg | AUC(0-t) [3, 17]: 6370 ng·h/mL | Cmax [3, 17]: 6360 ng/mL | Tmax [3, 17]: 15 min | half-life [3, 17]: 52.2 min | hERG IC50/ATX IC50 (hERG channel [4]): 9.48/1.59 = 6.0 | T1/2 of the liver microsome stability relative to the control compound [5]: more than 2 times | Remaining percentage of compound after 30 min of incubation (%) ([5]; NADPH, 37° C.): 63.7% | half-life at 1.5 μM ([5]; NADPH, 37° C.): 53.6 min | IC50 (hERG channel [6]): 9480 nM | IC50 (Autotaxin enzyme): 1.59 nM | content of TGF-β1 in freshly cryopreserved lung tissue ([7]; ELISA, FIG. 44): significantly lower than that of the vehicle control group | content of TGF-β1 in the bronchoalveolar lavage fluid supernatant ([7]; ELISA, FIG. 44): significantly lower than that of the vehicle control group | weight loss of the animals ([7]; FIG. 43): significantly less than that of the control compound group | IC50 [8]: 4.7 nM

C[C@H](Cc1cnn[nH]1)OCC(=O)N1Cc2cnc(NC3Cc4ccccc4C3)nc2C1 [Crystal form A of benzenesulfonate]
Purity/initial purity (%) (Solid stability, 1 week; 25° C./60% RH): 100.0% | Purity (area %) (Solid stability, 1 week; 25° C./60% RH): 99.35 area % | Crystal form change (Solid stability, 1 week; 25° C./60% RH): No | Purity/initial purity (%) (Solid stability, 1 week; 40° C./75% RH): 99.9% | Purity (area %) (Solid stability, 1 week; 40° C./75% RH): 99.20 area % | Crystal form change (Solid stability, 1 week; 40° C./75% RH): No | Purity (area %) [9]: 98.23 area % | Purity/initial purity (%) [9]: 100.0% | Crystal form change ([9]; XRPD): No | crystal form after being stored for 6 months [10]: unchanged | stability after being stored for 6 months [10]: excellent stability | After DVS test Whether the crystal form is changed ([11]; 0% RH to 95% RH to 0% RH, 25° C.): No | Hygroscopicity ([11]; DVS, 25° C.): Slightly | Vapor sorption (25° C./80% RH) ([11]; DVS, 25° C., 80% RH): 1.45% | DVS curve vapor sorption ([11]; at 0% RH to 80% RH): less than 1.46% | Risk evaluation ([11]; hygroscopicity evaluation): None | Crystal form change ([12]; SGF, 1 h): No | Crystal form change [12, 18]: Clear | Crystal form change [12, 19]: Clear | pH ([12]; FaSSIF, 1 h, listed as Benzenesulfonate Crystal form): 6.0 | pH ([12]; FaSSIF, 4 h, listed as Benzenesulfonate Crystal form): 6.0 | pH ([12]; FaSSIF, 24 h, listed as Benzenesulfonate Crystal form): 6.0 | pH ([12]; FeSSIF, 1 h, listed as Benzenesulfonate Crystal form): 5.0 | pH ([12]; FeSSIF, 4 h, listed as Benzenesulfonate Crystal form): 5.0 | pH ([12]; FeSSIF, 24 h, listed as Benzenesulfonate Crystal form): 5.0 | pH ([12]; H2O, 1 h, listed as Benzenesulfonate Crystal form): 2.5 | pH ([12]; H2O, 4 h, listed as Benzenesulfonate Crystal form): 2.5 | pH ([12]; H2O, 24 h, listed as Benzenesulfonate Crystal form): 2.5 | pH ([12]; SGF, 1 h, listed as Benzenesulfonate Crystal form): 1.9 | pH [12, 18]: 1.9 | pH [12, 19]: 1.9 | solubility in each system compared with that of the free base crystal form A ([12]; water, SGF, FaSSIF, FeSSIF): significantly improved | AUC(0-t) [13]: 7430 ng·h/mL | Cmax [13]: 6600 ng/mL | Tmax [13]: 30 min | half-life [13]: 71.4 min | particle size [14]: less than 50 μm
